Experimental data from paper PMC12951562, “SH2scan: Mapping SH2 Domain-Ligand Binding Selectivity for Inhibitors and Degraders” (Journal of Medicinal Chemistry, 2026).
Where two headings read alike, the source gives them in different places. Non-standard residues stand in square brackets, D forms with d. Residues, ends and D or L forms follow the SMILES beside them. *: point of attachment. pY = N[C@@H](Cc1ccc(OP(=O)(O)O)cc1)C(=O)O; Caffeoyl = O=C(/C=C/c1ccc(O)c(O)c1)*

How the values were obtained:
Assay type in all cases: binding
SYK(SH2dom1.dom2.) = biological target: T1, SYK(SH2dom1.dom2.) (Homo sapiens, UniProt P43405); conditions: primary screen, 10 μM
T1 construct: the SH2 domains for these targets are expressed in tandem constructs; made in house; host or cells: HEK293 (transient transfection), unpurified extract

[1] = biological target: T2, STAT3(N647I)-nonphosphorylated (Homo sapiens, UniProt P40763, N647I); test: biochemical; conditions: for percent of DMSO vehicle control at 10 µM / remaining activity at 10 µM: read-out: percent of DMSO vehicle control
T2 construct: made in house; host or cells: HEK293 (transient transfection), unpurified extract, dephosphorylated by endogenous phosphatases

SHIP2 = biological target: T3, SHIP2 (Homo sapiens, UniProt O15357); test: biochemical; conditions: for remaining activity at 10 µM: read-out: percent of DMSO vehicle control
T3 construct: made in house; host or cells: HEK293 (transient transfection), unpurified extract
T3 sequence (O15357 1-1258): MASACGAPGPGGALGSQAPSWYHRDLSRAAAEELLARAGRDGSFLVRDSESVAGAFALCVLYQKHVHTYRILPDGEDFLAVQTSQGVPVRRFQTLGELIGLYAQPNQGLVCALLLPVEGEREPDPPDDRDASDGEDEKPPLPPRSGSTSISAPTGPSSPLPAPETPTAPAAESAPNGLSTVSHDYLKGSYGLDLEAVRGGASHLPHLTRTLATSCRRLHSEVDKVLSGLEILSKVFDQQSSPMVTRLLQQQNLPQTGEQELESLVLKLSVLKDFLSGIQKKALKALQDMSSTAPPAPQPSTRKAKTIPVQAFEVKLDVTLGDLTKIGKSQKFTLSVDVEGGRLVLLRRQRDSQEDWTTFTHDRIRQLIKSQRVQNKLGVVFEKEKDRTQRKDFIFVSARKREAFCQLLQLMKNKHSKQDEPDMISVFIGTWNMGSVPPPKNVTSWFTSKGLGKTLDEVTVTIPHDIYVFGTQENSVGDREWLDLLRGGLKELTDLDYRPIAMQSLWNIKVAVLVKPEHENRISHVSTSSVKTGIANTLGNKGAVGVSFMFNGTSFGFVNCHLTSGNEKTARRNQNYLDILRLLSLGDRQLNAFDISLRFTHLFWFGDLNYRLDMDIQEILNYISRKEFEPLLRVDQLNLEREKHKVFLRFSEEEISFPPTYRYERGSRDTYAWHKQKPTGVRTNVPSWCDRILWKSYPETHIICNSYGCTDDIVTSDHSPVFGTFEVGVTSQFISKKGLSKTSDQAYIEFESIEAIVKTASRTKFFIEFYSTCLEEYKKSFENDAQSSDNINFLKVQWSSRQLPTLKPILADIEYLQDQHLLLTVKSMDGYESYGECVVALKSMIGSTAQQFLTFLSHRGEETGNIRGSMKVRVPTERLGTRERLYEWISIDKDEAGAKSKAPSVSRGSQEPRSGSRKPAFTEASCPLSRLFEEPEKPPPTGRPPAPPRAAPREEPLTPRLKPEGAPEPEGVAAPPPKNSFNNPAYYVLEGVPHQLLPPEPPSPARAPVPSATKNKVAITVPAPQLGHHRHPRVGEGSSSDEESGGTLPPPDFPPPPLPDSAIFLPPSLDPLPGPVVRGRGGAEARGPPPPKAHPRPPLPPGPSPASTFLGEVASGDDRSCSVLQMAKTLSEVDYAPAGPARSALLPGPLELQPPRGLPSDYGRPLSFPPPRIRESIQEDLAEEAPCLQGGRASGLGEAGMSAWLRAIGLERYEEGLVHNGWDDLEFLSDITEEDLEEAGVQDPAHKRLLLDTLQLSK

STAT5B = biological target: T4, STAT5B (Homo sapiens, UniProt P51692); test: biochemical; conditions: for percent of DMSO vehicle control at 10 µM / remaining activity at 10 µM: read-out: percent of DMSO vehicle control
T4 construct: made in house; host or cells: HEK293 (transient transfection), unpurified extract
T4 sequence (P51692 1-787): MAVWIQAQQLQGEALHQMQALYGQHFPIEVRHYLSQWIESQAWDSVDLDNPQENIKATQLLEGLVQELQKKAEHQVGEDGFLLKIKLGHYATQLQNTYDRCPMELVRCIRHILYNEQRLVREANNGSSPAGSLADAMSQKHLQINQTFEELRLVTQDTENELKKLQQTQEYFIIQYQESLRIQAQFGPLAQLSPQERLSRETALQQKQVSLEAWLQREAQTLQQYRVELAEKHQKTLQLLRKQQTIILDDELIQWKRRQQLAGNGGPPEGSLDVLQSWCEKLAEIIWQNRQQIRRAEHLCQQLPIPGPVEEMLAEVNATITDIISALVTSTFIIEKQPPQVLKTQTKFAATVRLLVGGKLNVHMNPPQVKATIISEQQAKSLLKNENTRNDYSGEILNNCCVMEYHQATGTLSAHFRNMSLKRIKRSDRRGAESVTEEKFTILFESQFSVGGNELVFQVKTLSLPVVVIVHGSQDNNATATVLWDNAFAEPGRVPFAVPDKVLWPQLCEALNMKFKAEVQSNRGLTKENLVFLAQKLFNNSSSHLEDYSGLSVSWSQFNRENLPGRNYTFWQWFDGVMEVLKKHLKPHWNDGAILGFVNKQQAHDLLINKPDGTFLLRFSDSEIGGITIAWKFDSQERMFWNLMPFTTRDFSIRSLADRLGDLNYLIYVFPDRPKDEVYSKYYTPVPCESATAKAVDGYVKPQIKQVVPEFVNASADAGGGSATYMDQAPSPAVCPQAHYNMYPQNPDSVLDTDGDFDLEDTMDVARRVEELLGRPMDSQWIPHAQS

[2] = biological target: T5, STAT3(E616del)-nonphosphorylated (Homo sapiens, UniProt P40763, DEL616-616); test: biochemical; conditions: for percent of DMSO vehicle control at 10 µM / remaining activity at 10 µM: read-out: percent of DMSO vehicle control
T5 construct: made in house; host or cells: HEK293 (transient transfection), unpurified extract, dephosphorylated by endogenous phosphatases

[3] = biological target: T6, STAT3(D661Y)-nonphosphorylated (Homo sapiens, UniProt P40763, D661Y); test: biochemical; conditions: for percent of DMSO vehicle control at 10 µM / remaining activity at 10 µM: read-out: percent of DMSO vehicle control
T6 construct: made in house; host or cells: HEK293 (transient transfection), unpurified extract, dephosphorylated by endogenous phosphatases

PTPN11(SH2dom.N-term.) = biological target: T7, PTPN11(SH2dom.N-term.) (Homo sapiens, UniProt Q06124); conditions: primary screen, 10 μM
T7 construct: SH2dom.N-term. denotes SH2 domain closest to N-terminus of protein; made in house; host or cells: HEK293 (transient transfection, unpurified extract)
T7 sequence (Q06124 6-102 limits assumed): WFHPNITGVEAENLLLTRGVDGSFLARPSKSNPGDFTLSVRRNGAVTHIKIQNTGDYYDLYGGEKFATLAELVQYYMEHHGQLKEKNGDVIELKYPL

| SMILES | percent of DMSO vehicle control (SYK(SH2dom1.dom2.)) [%] | percent of DMSO vehicle control (PTPN11(SH2dom.N-term.)) [%] | percent of DMSO vehicle control at 10 µM [1] [%] | remaining activity at 10 µM (SHIP2) [%] | percent of DMSO vehicle control at 10 µM (STAT5B) [%] | percent of DMSO vehicle control at 10 µM [2] [%] | percent of DMSO vehicle control at 10 µM [3] [%] | remaining activity at 10 µM ([1]; primary screen, 10 μM) [%] | remaining activity at 10 µM (SHIP2; primary screen, 10 μM) [%] | remaining activity at 10 µM (STAT5B; primary screen, 10 μM) [%] | remaining activity at 10 µM ([2]; primary screen, 10 μM) [%] | remaining activity at 10 µM ([3]; primary screen, 10 μM) [%] | other results |
| --- | --- | --- | --- | --- | --- | --- | --- | --- | --- | --- | --- | --- | --- |
| CC[C@H](C)[C@H](NC(=O)[C@H](CCC(=O)O)NC(=O)[C@H](CCC(=O)O)NC(=O)[C@H](Cc1ccc(OP(=O)(O)O)cc1)NC(C)=O)C(=O)N[C@@H](CCC(=O)O)C(N)=O [Ac-pYEEIE-NH2] (Ac-[pY]EEIE-NH2) | 126.1 | 116.6 | – | – | – | – | – | – | – | – | – | – | percent of DMSO vehicle control ([1]; primary screen, 10 μM): 97.9±8.6%; percent of DMSO vehicle control (SHIP2; primary screen, 10 μM): 62.5±0.8%; percent of DMSO vehicle control (STAT5B; primary screen, 10 μM): 21.8±4.7%; percent of DMSO vehicle control ([2]; primary screen, 10 μM): 86.7±0.4%; percent of DMSO vehicle control ([3]; primary screen, 10 μM): 91.4±3.8% |
| CC(=O)N[C@@H](Cc1ccc(CP(=O)(O)O)cc1)C(=O)NC1(C(=O)N[C@@H](CC(N)=O)C(=O)NCCCc2c(O)ccc3ccccc23)CCCCC1 [CGP78850] | 85.1±0.1 | 125.2±9.1 | 80.6 ± 2.9 | 106 ± 9.3 | 89.6 ± 6.1 | 71.8 ± 6.4 | 97.4 ± 6.3 | – | – | – | – | – | – |
| CC[C@H](C)[C@H](NC(=O)[C@H](CCC(=O)O)NC(=O)[C@H](CCC(=O)O)NC(=O)[C@H](Cc1ccc(OP(=O)(O)O)cc1)NC(=O)/C=C/c1ccc(O)c(O)c1)C(=O)N[C@@H](CCC(=O)O)C(=O)O [Caffeic acid-pYEEIE] (Caffeoyl-[pY]EEIE-OH) | 72.6±6.4 | 92.8±10.0 | 85.3 ± 2.1 | 0.2 | 19.3 ± 2.8 | 85.5 ± 0.3 | 108 ± 9.3 | – | – | – | – | – | Kd (SHIP2): 230 ± 120 nM; Kd (STAT5B): 4200 ± 2800 nM |
| O=C(CCl)Nc1cccc(CNC(=O)[C@H](Cc2ccc(OP(=O)(O)O)cc2)NC(=O)Cc2ccc(F)cc2)c1 [MN551] | 61.9±4.0 | 85.0±0.9 | – | – | – | – | – | 81.2 | 31.7 | 49.1 ± 7.6 | 203 | 171 | KD (SHIP2; dose-response): No Hit |
| NC(=O)CC[C@H](NC(=O)[C@@H]1CC[C@@H]2CCN(C(=O)CCCCCC#Cc3cccc4c3CN(C3CCC(=O)NC3=O)C4=O)C[C@H](NC(=O)c3cc4cc(C(F)(F)P(=O)(O)O)ccc4[nH]3)C(=O)N21)C(=O)NC(c1ccccc1)c1ccccc1 (some centres unmarked) [SD-36] | 104.6 | 89.9±0.7 | 0 | 67.3 ± 2.6 | 5.7 ± 0.1 | 0 | 0 | – | – | – | – | – | Kd ([1]; dose-response): 63 ± 23 nM; Kd (STAT5B; dose-response): 2030 ± 820 nM; Kd ([2]; dose-response): 28 ± 11 nM; Kd ([3]; dose-response): 24 ± 12 nM |
| CC(=O)N1CC[C@H]2CC[C@@H](C(=O)N[C@@H](CCC(N)=O)C(=O)NC(c3ccccc3)c3ccccc3)N2C(=O)[C@@H](NC(=O)c2cc3cc(C(F)(F)P(=O)(O)O)ccc3[nH]2)C1 [SI-109] | 121.8 | 109.2 | 0.5 ± 0.1 | 121 | 109 | 0.1 | 0.6 ± 0.2 | – | – | – | – | – | Kd [1]: 25 ± 8.3 nM; Kd (STAT5B): 18000 ± 4000 nM; Kd [2]: 8.7 ± 3.4 nM; Kd [3]: 21 ± 6.8 nM |
| C/C(=C\C(=O)N[C@H](C(=O)N1CCC[C@H]1C(=O)N(c1ccccc1)c1ccc(I)cc1)C(C)(C)C)c1ccc(OP(=O)(O)O)cc1 [STAT6-IN-1] | 61.2±11.0 | 76.7±1.3 | – | – | – | – | – | 0 | 6.9 ± 3.9 | 0 | 0 | 0 | Kd ([1]; dose-response, read-out: KD): 800 ± 120 nM; Kd (SHIP2; dose-response, read-out: KD): 2030 ± 420 nM; Kd (STAT5B; dose-response, read-out: KD): 16 ± 3.2 nM; Kd ([2]; dose-response, read-out: KD): 140 ± 35 nM; Kd ([3]; dose-response, read-out: KD): 1000 ± 800 nM |
| CC(C)(C)[C@H](NC(=O)/C=C/c1ccc(OP(=O)(O)O)cc1)C(=O)N1CCC[C@H]1C(=O)N(c1ccccc1)c1ccc(I)cc1 [STAT6-IN-3] | 65.2±43.9 | 73.9±34.6 | – | – | – | – | – | 2.1 ± 3.7 | 36.5 ± 29.6 | 0 | 0.4 ± 0.4 | 4.4 ± 3.7 | Kd ([1]; dose-response, read-out: KD): 1500 ± 750 nM; KD (SHIP2; dose-response): No Hit; Kd (STAT5B; dose-response, read-out: KD): 69 ± 42 nM; Kd ([2]; dose-response, read-out: KD): 280 ± 120 nM; Kd ([3]; dose-response, read-out: KD): 1900 ± 2300 nM |
| O=C(COc1ccc2cc(C(=O)Nc3ccccc3)ccc2c1)NCc1ccc(OP(=O)(O)O)c(OP(=O)(O)O)c1 [Stafib-1] | 66.1±28.1 | 79.2±4.6 | – | – | – | – | – | 78.6 ± 15.4 | – | 0 | 135 | 157 | – |
